As a reminder, the melting point is the temperature, or range, at which the solid turns liquid.

Molecules are shown by their SMILES. Where only a bound is given, the exact number is not on record here.

From patent US20130096156A1 (priority 2010, published 2013) come the findings set out here.

In data set [1] the test system is Phytophthora infestans. Briefly: whole plant or invertebrate. As to conditions: in Solanum lycopersicum, foliar, read-out: inhibit fungal infestation (percent disease control compared to untreated). Format: in vivo.
Data set [2] concerns Pythium ultimum. Briefly: Pythium ultimum / liquid culture (seedling damping off). Format: cell-based. As to conditions: Globisporangium ultimum, liquid culture in PDB, 24° C., 2-3 days after application, read-out: inhibit fungal infestation (inhibition of growth determined photometrically). The procedure:
Mycelia fragments or conidia suspensions of a fungus, prepared either freshly from liquid cultures of the fungus or from cryogenic storage, are directly mixed into nutrient broth. DMSO solutions of the test compound (max. 10 mg/ml) is diluted with 0.025% Tween20 by factor 50 and 10 μl of this solution is pipetted into a microtiter plate (96-well format) and the nutrient broth containing the fungal spores/mycelia fragments is then added to give an end concentration of the tested compound. The test plates are incubated at 24° C. and 96% rH in the dark. The inhibition of fungal growth is determined photometrically after 2-6 days and antifungal activity is calculated.
Mycelia fragments and oospores of a newly grown liquid culture of the fungus are directly mixed into nutrient broth (PDB potato dextrose broth). After placing a (DMSO) solution of test compound into a microtiter plate (96-well format), the nutrient broth containing the fungal mycelia/spore mixture is added. The test plates are incubated at 24° C. and the inhibition of growth is determined photometrically 2-3 days after application.

Data set [3] has as its system Plasmopara viticola. Briefly: Plasmopara viticola / grape / leaf disc preventative. As to conditions: foliar, grape vine leaf disks, inoculated 1 day after application, assessed 6-8 days after application, read-out: inhibit fungal infestation (percent disease control compared to untreated). Format: in vivo. The procedure: (§1) Leaf disks of various plant species (diameter 14 mm) are cut from plants grown in the greenhouse. The cut leaf disks are placed in multiwell plates (24-well format) onto water agar. Immediately after cutting the leaf disks are sprayed with a test solution.
(§2) Compounds to be tested are prepared as DMSO solutions (max. 10 mg/ml). Just before spraying the solutions are diluted to the appropriate concentrations with 0.025% Tween20. After drying, the leaf disks are inoculated with a spore suspension of the appropriate pathogenic fungus.
(§3) After an incubation time of 3-7 days after inoculation at defined conditions (temp, rH, light, etc.) according to the respective test system, the activity of the test compound is assessed as antifungal activity.
Grape vine leaf disks are placed on water agar in multiwell plates (24-well format) and sprayed with the formulated test compound diluted in water. The leaf disks are inoculated with a spore suspension of the fungus 1 day after application. The inoculated leaf disks are incubated at 19° C. and 80% rh under a light regime of 12 h light/12 h darkness in a climate cabinet and the activity of a compound is assessed as percent disease control compared to untreated when an appropriate level of disease damage appears in untreated check leaf disks (6-8 days after application).

Data set [4] has as its system Blumeria graminis f. sp. tritici (Erysiphe graminis f. sp. tritici). Briefly: Blumeria graminis f. sp. tritici / wheat / leaf disc preventative (powdery mildew on wheat). Format: in vivo. As to conditions: foliar, wheat leaf segments cv. Kanzler, inoculated 1 day after application, assessed 6-8 days after application, read-out: inhibit fungal infestation (percent disease control compared to untreated). The protocol:
as §1, §2, §3
Wheat leaf segments cv. Kanzler are placed on agar in a multiwell plate (24-well format) and sprayed with the formulated test compound diluted in water. The leaf disks are inoculated by shaking powdery mildew infected plants above the test plates 1 day after application. The inoculated leaf disks are incubated at 20° C. and 60% rh under a light regime of 24 h darkness followed by 12 h light/12 h darkness in a climate chamber and the activity of a compound is assessed as percent disease control compared to untreated when an appropriate level of disease damage appears on untreated check leaf segments (6-8 days after application).

In data set [5] the test system is Phaeosphaeria nodorum (Septoria nodorum). Briefly: Phaeosphaeria nodorum (Septoria nodorum) / wheat / leaf disc preventative (glume blotch). Format: in vivo. As to conditions: Parastagonospora nodorum, foliar, wheat leaf segments cv. Kanzler, inoculated 2 days after application, assessed 5-7 days after application, read-out: inhibit fungal infestation (percent disease control compared to untreated). The procedure:
as §1, §2, §3
Wheat leaf segments cv. Kanzler are placed on agar in a multiwell plate (24-well format) and sprayed with the formulated test compound diluted in water. The leaf disks are inoculated with a spore suspension of the fungus 2 days after application. The inoculated test leaf disks are incubated at 20° C. and 75% rh under a light regime of 12 h light/12 h darkness in a climate cabinet and the activity of a compound is assessed as percent disease control compared to untreated when an appropriate level of disease damage appears in untreated check leaf disks (5-7 days after application).

Consider `CC#CC(C)(C)NC(=O)C(Oc1ccc2ncc(CC)cc2c1)SC` (stereo not drawn) [Compound 13, N-(1,1-Dimethyl-but-2-ynyl)-2-(3-ethyl-quinolin-6-yloxy)-2-methylsulfanyl-acetamide], for which the melting point fell in the range of 133 to 134 °C. The inhibition at 200 ppm in data set [1] is at least 80%. In addition, the inhibition at 200 ppm in data set [2] is at least 80%. For the same compound, in data set [3], the inhibition at 200 ppm was at least 80%. In addition, the inhibition at 200 ppm in data set [4] was at least 80%.

On to `C#CC(C)(C)NC(=O)C(Oc1cc(Cl)c2ncc(CC)cc2c1)SC` (stereo not drawn) [Compound 25, 2-(8-Chloro-3-ethyl-quinolin-6-yloxy)-N-(1,1-dimethyl-prop-2-ynyl)-2-methylsulfanyl-acetamide], for which the melting point is 149 to 151 °C. Moreover, in data set [5], the inhibition at 200 ppm was at least 80%. In data set [1], the inhibition at 200 ppm was at least 80%. Also, in data set [3], the inhibition at 200 ppm is at least 80%.

Compound `C#CC(C)(C)NC(=O)C(Oc1ccc2ncc(C=C)cc2c1)SC` (stereo not drawn) [Compound 33, N-(1,1-Dimethyl-prop-2-ynyl)-2-methylsulfanyl-2-(3-vinyl-quinolin-6-yloxy)-acetamide] had a melting point of 142 to 144 °C. Also, the inhibition at 200 ppm in data set [5] was at least 80%. The inhibition at 200 ppm in data set [1] was at least 80%. In addition, the inhibition at 200 ppm in data set [2] is at least 80%. In addition, in data set [3], the inhibition at 200 ppm was at least 80%. In data set [4], the inhibition at 200 ppm is at least 80%.

`CO/N=C/C(C)(C)NC(=O)C(Oc1cc(C)c2ncc(C)cc2c1)SC` (stereo not drawn) [Compound 8, 2-(3,8-Dimethyl-quinolin-6-yloxy)-N-(2-methoxyimino-1,1-dimethyl-ethyl)-2-methylsulfanyl-acetamide] yielded a melting point of 109 to 111 °C. Also, in data set [5], the inhibition at 200 ppm was at least 80%. Moreover, the inhibition at 200 ppm in data set [1] was at least 80%. Moreover, the inhibition at 200 ppm in data set [2] is at least 80%. In data set [3], the inhibition at 200 ppm is at least 80%. For the same compound, in data set [4], the inhibition at 200 ppm is at least 80%.

For `CC#CC(C)(C)NC(=O)C(Oc1ccc2ncc(C)cc2c1)SC` (stereo not drawn) [Compound 3, N-(1,1-Dimethyl-but-2-ynyl)-2-(3-methyl-quinolin-6-yloxy)-2-methylsulfanyl-acetamide], the melting point was in the range of 128 to 129 °C. For the same compound, the inhibition at 200 ppm in data set [1] is at least 80%. In addition, the inhibition at 200 ppm in data set [2] is at least 80%. The inhibition at 200 ppm in data set [3] was at least 80%. The inhibition at 200 ppm in data set [4] is at least 80%.

Consider `C#CC(C)(C)NC(=O)C(Oc1cc(C)c2ncc(CC)cc2c1)SC` (stereo not drawn) [Compound 18, N-(1,1-Dimethyl-prop-2-ynyl)-2-(3-ethyl-8-methyl-quinolin-6-yloxy)-2-methylsulfanyl-acetamide], for which the melting point was in the range of 92 to 93 °C. Besides, the inhibition at 200 ppm in data set [5] was at least 80%. Also, in data set [1], the inhibition at 200 ppm is at least 80%. In addition, the inhibition at 200 ppm in data set [2] was at least 80%. Further, the inhibition at 200 ppm in data set [3] was at least 80%. For the same compound, the inhibition at 200 ppm in data set [4] was at least 80%.

In turn, `C#CC(C)(C)NC(=O)C(Oc1ccc2ncc(C)cc2c1)SC` (stereo not drawn) [Compound 2, N-(1,1-Dimethyl-prop-2-ynyl)-2-(3-methyl-quinolin-6-yloxy)-2-methylsulfanyl-acetamide] gave a melting point of 132 to 134 °C. In addition, in data set [1], the inhibition at 200 ppm is at least 80%. Moreover, the inhibition at 200 ppm in data set [2] is at least 80%. Moreover, the inhibition at 200 ppm in data set [3] is at least 80%. Moreover, in data set [4], the inhibition at 200 ppm was at least 80%.

`C=Cc1cnc2c(C)cc(OC(SC)C(=O)NC(C)(C)/C=N/OC)cc2c1` (stereo not drawn) [Compound 35, N-(2-Methoxyimino-1,1-dimethyl-ethyl)-2-methylsulfanyl-2-(8-methyl-3-vinyl-quinolin-6-yloxy)-acetamide] returned a melting point of 87 to 89 °C. The inhibition at 200 ppm in data set [5] was at least 80%. Further, in data set [1], the inhibition at 200 ppm was at least 80%. For the same compound, the inhibition at 200 ppm in data set [2] is at least 80%. Besides, the inhibition at 200 ppm in data set [3] is at least 80%. Further, the inhibition at 200 ppm in data set [4] is at least 80%.

As to `CC#CC(C)(C)NC(=O)C(Oc1cc(F)c2ncc(CC)cc2c1)SC` (stereo not drawn) [Compound 15, N-(1,1-Dimethyl-but-2-ynyl)-2-(3-ethyl-8-fluoro-quinolin-6-yloxy)-2-methylsulfanyl-acetamide], the melting point lay within 151 to 153 °C. Moreover, the inhibition at 200 ppm in data set [1] was at least 80%. Further, the inhibition at 200 ppm in data set [2] is at least 80%. Moreover, the inhibition at 200 ppm in data set [3] was at least 80%. In addition, in data set [4], the inhibition at 200 ppm is at least 80%.

As to `CCc1cnc2c(Cl)cc(OC(SC)C(=O)NC(C)(C)/C=N/OC)cc2c1` (stereo not drawn) [Compound 24, 2-(8-Chloro-3-ethyl-quinolin-6-yloxy)-N-(2-methoxyimino-1,1-dimethyl-ethyl)-2-methylsulfanyl-acetamide], the melting point was 142 to 144 °C. Further, the inhibition at 200 ppm in data set [1] was at least 80%. Further, the inhibition at 200 ppm in data set [2] is at least 80%. Moreover, in data set [3], the inhibition at 200 ppm was at least 80%. Also, in data set [4], the inhibition at 200 ppm is at least 80%.

Take `CSC(Oc1cc(C)c2ncc(C)cc2c1)C(=O)NC(C)(C)C` (stereo not drawn) [Compound 6, N-tert-Butyl-2-(3,8-dimethyl-quinolin-6-yloxy)-2-methylsulfanyl-acetamide]: the melting point fell in the range of 126 to 127 °C. Also, in data set [1], the inhibition at 200 ppm is at least 80%. Further, the inhibition at 200 ppm in data set [2] is at least 80%. Moreover, in data set [3], the inhibition at 200 ppm is at least 80%. The inhibition at 200 ppm in data set [4] is at least 80%.

Take `C#CC(C)(COC)NC(=O)C(Oc1cc(C)c2ncc(C)cc2c1)SC` (stereo not drawn) [Compound 10, 2-(3,8-Dimethyl-quinolin-6-yloxy)-N-(1-methoxymethyl-1-methyl-prop-2-ynyl)-2-methylsulfanyl-acetamide]: the melting point lay in the range of 119 to 120 °C. Moreover, the inhibition at 200 ppm in data set [5] is at least 80%. The inhibition at 200 ppm in data set [1] is at least 80%. Further, the inhibition at 200 ppm in data set [2] is at least 80%. For the same compound, the inhibition at 200 ppm in data set [4] was at least 80%.

For `COCC#CC(C)(C)NC(=O)C(Oc1cc(C)c2ncc(C)cc2c1)SC` (stereo not drawn) [Compound 7, 2-(3,8-Dimethyl-quinolin-6-yloxy)-N-(4-methoxy-1,1-dimethyl-but-2-ynyl)-2-methylsulfanyl-acetamide], the melting point fell in the range of 124 to 126 °C. The inhibition at 200 ppm in data set [1] was at least 80%. The inhibition at 200 ppm in data set [2] is at least 80%. For the same compound, the inhibition at 200 ppm in data set [3] was at least 80%. The inhibition at 200 ppm in data set [4] was at least 80%.

In turn, `CO/N=C/C(C)(C)NC(=O)C(Oc1ccc2ncc(C)cc2c1)SC` (stereo not drawn) [Compound 12, N-(2-Methoxyimino-1,1-dimethyl-ethyl)-2-(3-methyl-quinolin-6-yloxy)-2-methylsulfanyl-acetamide] returned a melting point of 130 to 132 °C. Moreover, the inhibition at 200 ppm in data set [1] is at least 80%. Moreover, in data set [2], the inhibition at 200 ppm is at least 80%. The inhibition at 200 ppm in data set [3] is at least 80%. The inhibition at 200 ppm in data set [4] is at least 80%.

`CSC(Oc1cc(C)c2ncc(C)cc2c1)C(=O)NC1(C)CCC1` (stereo not drawn) [Compound 9, 2-(3,8-Dimethyl-quinolin-6-yloxy)-N-(1-methyl-cyclobutyl)-2-methylsulfanyl-acetamide] gave a melting point of 150 to 151 °C. The inhibition at 200 ppm in data set [1] was at least 80%. The inhibition at 200 ppm in data set [2] is at least 80%. In data set [3], the inhibition at 200 ppm was at least 80%. Moreover, the inhibition at 200 ppm in data set [4] is at least 80%.
